# Experimental data as given in patent US20030021856A1, “New use of ammonium compounds and/or urea” (priority 1996, published 2003).
# Legend:
# [1] = Peroral self-administration of ammonium chloride by the inventor (respiratory gas exchange); type: in vivo, human; details: 80 mmoles ammonium chloride perorally
# From the text: Please replace the paragraph beginning at line 1 on page 5 with the following: portal area, especially at acidosis, can be utilized for synthesis of glutamine in the liver. […] When the patient treated is breathing by themself, the supply of ammonium will bring about a so-called compensatory hyperventilation. […] Furthermore, there is a report on the concentration of urea in the vitreous body of dead SIDS patients which is compared to autopsy material from children deceased from other causes at the same age [Blumenfeld T A, et al, Am J Clin Pathol, 71, 219-223 (1979)]. It appeared that children deceased from SIDS have lower urea values than children deceased from other causes. […] The low concentration of urea found is thus not inconsistent with the hypothesis put forward here.
# [2] = supplied intravenously and perorally; known by intensive care physicians; cited from earlier work
smiles,measurement,setting,value
Cl.N [ammonium chloride],duration of the increased carbon dioxide elimination,[1],~1 h
same,effect on ventilation,[1],slight hyperventilation
same,increase in elimination of carbon dioxide,[1],30 mL/min
same,resorption from the gastrointestinal tract,[1],resorbed very quickly
same,total carbon dioxide corresponding to the increased elimination,[1]; 30 ml/min for nearly 1h,about 80 mmoles
same,RQ (Respiratory Quotient = carbon dioxide emission / oxygen gas uptake) after administration,[1]; value at rest 0.82,0.87
same,effect on base excess values,[2],lowers base excess values
